Results on 4 compounds are retold here after ChEMBL document CHEMBL1201862, “PubChem BioAssay data set” (2004).

The target in assay [1] is T1, Polyadenylate-binding protein 1 (Homo sapiens, UniProt P11940). Description: MLLE binding blockers, Cy5 peptide tracer – biochemical, fluorescence polarization, Cy5-PAM2 peptide, secondary, miRNA deadenylation inhibitor project, dose response (AID 602260). The class given is functional. As to conditions: read-out: IC50_Mean.
The target of the next assay is Protein Rev (Human immunodeficiency virus type 1 group M subtype B (isolate HXB2)(HIV-1), UniProt P04618). The assay is described as follows: blockers of HIV Rev/RRE RNA complex – biochemical, fluorescence polarization, HIV-1, dose response (AID 434976). Also on record: species or system Human immunodeficiency virus 1.
Assay [2] concerns the target Endoplasmic reticulum aminopeptidase 1 (Homo sapiens, UniProt Q9NZ08). Description: inhibition of human ERAP1 enzyme activity – biochemical, cherry-pick, set 2, plate reader, dose response (AID 743314).
For assay [3], the target named is T1, Polyadenylate-binding protein 1. Description: MLLE domain peptide-binding blockers, IC50 – biochemical, fluorescence polarization, FITC-PAM2 peptide, dose response (AID 602259). The class given is functional. To be noted: read-out: IC50_Mean. For orientation: Polarisation of emitted light reports the rotation of a fluorescent probe.
In assay [4] the target is Female germline-specific tumor suppressor gld-1 (Caenorhabditis elegans, UniProt Q17339). The assay is described as follows: blockers of GLD-1/TGE RNA complex formation – biochemical, fluorescence polarization, C. elegans, dose response (AID 2802).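 Further: fluorescence polarization of labeled TGE RNA bound by purified gld-1 protein.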
Assay [5] deals with T2, Microphthalmia-associated transcription factor (Homo sapiens, UniProt O75030).
T2 sequence (O75030 whole entry): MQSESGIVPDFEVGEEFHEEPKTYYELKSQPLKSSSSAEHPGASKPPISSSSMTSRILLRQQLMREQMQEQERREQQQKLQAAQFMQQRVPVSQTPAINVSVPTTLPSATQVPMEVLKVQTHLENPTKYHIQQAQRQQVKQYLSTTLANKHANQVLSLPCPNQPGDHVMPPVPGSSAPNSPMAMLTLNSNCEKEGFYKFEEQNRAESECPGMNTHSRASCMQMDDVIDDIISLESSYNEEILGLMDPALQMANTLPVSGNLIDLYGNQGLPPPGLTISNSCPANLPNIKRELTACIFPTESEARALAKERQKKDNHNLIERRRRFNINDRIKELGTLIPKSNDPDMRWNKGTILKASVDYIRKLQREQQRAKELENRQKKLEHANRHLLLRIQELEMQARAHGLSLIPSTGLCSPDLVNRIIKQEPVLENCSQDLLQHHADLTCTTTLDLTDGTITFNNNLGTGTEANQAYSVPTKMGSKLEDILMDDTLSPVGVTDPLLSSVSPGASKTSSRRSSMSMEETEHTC
Description: reducers of TRPM1 reporter luminescence, concentration series – cell-based, SK-MEL-5, cherry-picked, set 3, MITF inhibitor project, dose response (AID 493073).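 Further: SK-MEL-5 melanoma cells with luciferase driven by the MITF target TRPM1 promoter.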 It counts as functional.

For a further assay, the system named is Vero. The assay is described as follows: cells. It counts as functional. As to conditions: Chlorocebus sabaeus.
Assay [6] addresses Neurotensin receptor type 1 (Homo sapiens, UniProt P30989). The class given is functional.
For the next assay, the system named is HEK293. The assay is described as follows: EBV LMP1 TES2 canonical NF-kB signalling blockers – cell-based, HEK293, luciferase, cherry-pick, dose response (AID 588343). The class given is functional. As to conditions: Homo sapiens.
Assay [7] can be described thus: Luminescence Cell-Based Dose Confirmation HTS to Identify Inhibitors of Platelet Dense Granule Release. [Related pubchem assays: 1663 (Primary HTS), 1678 (Summary of Project)]. It counts as functional.
The target of assay [8] is Cyclin-dependent kinase 5/CDK5 activator 1 (Homo sapiens, UniProt Q00535). Description: blockade of human CDK5 activity – biochemical, cherry-picked samples, set 2, dose response (AID 504545).
Assay [9] in a line: alpha-synuclein stem-loop luciferase translation blockers – H4 neuroglioma cells, luminescence, confirmation (AID 1988). The class given is functional, cell-based.
Assay [10] is described as follows: ADP-Glo luciferase signal interference – biochemical, luminescence, cherry-picked samples, set 2, artefact control for CDK5 inhibitor project, dose response (AID 504546). The class given is functional, cell-based.
The nature of assay [11]: luciferase reporter signal suppression in cells – H4 neuroglioma cells, luminescence, dose response (AID 1990). The class given is functional, cell-based.
The nature of a further assay: cells. The class given is functional.
Assay [12] can be described thus: Luminescence Cell-Based Dose Response HTS to Identify Inhibitors of 5'UTR Stem-Loop Driven Prion Protein mRNA Translation in H4 Neuroglioblastoma Cells. [Related pubchem assays: 1827 (Project Summary), 1813 (Primary HTS)]. It counts as functional.
Assay [13] concerns the target Luciferin 4-monooxygenase (Photinus pyralis, UniProt P08659). The assay is described as follows: inhibition of purified Photinus pyralis luciferase – biochemical, luminescence, dose response (AID 1891).
The next assay concerns the target Beta-galactosidase (Escherichia coli, UniProt Q8VNN2). Description: detection-enzyme interference by beta-gal modulators – biochemical, E. coli enzyme, set 3, artefact control for CCR6 antagonist project, dose response (AID 504712). It counts as functional.
Assay [14] addresses C-C chemokine receptor type 6 (Homo sapiens, UniProt P51684). The assay is described as follows: antagonism of CCR6 beta-arrestin recruitment – cell-based, luminescent beta-arrestin readout, dose response (AID 504728). It counts as functional. A general note: Arrestin recruitment assays detect the binding of arrestin to an activated receptor.

The structures appear in SMILES notation. Activity calls are given as the source filed them. Bounds are passed on as bounds.

What is called AC50 is the concentration at which the activity in the assay is half-maximal. By CC50 is commonly meant the concentration that lowers cell viability or growth by half. What is called EC50 is the concentration giving half of the maximal effect.

T1 sequence (P11940 whole entry): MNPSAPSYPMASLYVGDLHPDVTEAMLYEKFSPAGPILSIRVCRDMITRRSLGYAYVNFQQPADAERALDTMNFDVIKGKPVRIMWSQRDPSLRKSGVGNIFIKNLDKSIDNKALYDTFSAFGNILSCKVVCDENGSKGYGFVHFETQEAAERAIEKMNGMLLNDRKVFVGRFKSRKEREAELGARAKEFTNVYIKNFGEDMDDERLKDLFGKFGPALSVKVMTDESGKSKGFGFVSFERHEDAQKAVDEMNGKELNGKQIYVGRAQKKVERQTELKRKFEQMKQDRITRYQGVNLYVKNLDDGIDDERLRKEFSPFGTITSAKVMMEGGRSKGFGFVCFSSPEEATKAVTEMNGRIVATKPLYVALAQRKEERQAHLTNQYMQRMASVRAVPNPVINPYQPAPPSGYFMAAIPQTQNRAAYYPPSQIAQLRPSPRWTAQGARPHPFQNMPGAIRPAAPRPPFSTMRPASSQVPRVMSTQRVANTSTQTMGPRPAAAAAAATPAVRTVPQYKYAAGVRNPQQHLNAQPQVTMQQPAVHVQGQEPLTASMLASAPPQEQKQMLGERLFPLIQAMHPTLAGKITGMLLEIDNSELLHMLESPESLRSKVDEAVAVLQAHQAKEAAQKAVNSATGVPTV
Female germline-specific tumor suppressor gld-1, sequence (Q17339 whole entry): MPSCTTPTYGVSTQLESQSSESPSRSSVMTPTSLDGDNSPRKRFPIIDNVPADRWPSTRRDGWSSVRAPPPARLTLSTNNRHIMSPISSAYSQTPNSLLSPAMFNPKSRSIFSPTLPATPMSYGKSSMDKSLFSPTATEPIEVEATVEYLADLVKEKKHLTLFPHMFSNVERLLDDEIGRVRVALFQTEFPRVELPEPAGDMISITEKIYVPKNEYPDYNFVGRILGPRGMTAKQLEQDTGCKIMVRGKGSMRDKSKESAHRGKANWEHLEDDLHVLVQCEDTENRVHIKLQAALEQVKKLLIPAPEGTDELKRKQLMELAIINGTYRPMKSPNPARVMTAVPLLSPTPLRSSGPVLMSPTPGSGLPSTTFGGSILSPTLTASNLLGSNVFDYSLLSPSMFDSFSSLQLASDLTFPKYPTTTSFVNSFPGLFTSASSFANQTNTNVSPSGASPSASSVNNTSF
Beta-galactosidase, sequence (Q8VNN2 whole entry): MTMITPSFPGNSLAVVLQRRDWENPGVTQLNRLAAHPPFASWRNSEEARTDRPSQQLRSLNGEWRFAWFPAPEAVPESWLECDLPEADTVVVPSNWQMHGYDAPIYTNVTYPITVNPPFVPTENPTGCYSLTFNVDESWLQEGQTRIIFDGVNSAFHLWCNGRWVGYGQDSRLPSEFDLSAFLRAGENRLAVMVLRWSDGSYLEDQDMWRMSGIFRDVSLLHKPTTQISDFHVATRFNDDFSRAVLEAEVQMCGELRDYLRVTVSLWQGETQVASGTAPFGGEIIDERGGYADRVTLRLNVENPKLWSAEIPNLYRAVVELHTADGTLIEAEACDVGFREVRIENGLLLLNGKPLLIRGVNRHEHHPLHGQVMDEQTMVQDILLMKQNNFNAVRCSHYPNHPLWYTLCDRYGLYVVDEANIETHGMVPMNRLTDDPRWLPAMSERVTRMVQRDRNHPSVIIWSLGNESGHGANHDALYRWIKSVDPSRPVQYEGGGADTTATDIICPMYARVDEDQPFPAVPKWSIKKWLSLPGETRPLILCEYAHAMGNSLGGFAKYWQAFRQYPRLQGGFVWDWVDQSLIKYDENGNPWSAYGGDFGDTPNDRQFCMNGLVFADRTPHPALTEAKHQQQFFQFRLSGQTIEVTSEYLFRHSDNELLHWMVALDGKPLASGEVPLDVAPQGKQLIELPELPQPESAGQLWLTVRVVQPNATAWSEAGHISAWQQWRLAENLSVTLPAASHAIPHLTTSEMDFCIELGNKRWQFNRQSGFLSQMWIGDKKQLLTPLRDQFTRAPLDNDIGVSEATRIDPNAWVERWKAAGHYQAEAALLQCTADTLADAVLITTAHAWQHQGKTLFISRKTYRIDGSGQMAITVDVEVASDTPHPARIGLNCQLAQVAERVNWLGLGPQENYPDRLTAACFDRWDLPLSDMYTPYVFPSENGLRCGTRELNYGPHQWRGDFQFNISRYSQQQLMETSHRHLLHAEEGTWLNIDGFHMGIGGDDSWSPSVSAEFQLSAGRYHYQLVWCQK
Neurotensin receptor type 1, sequence (P30989 whole entry): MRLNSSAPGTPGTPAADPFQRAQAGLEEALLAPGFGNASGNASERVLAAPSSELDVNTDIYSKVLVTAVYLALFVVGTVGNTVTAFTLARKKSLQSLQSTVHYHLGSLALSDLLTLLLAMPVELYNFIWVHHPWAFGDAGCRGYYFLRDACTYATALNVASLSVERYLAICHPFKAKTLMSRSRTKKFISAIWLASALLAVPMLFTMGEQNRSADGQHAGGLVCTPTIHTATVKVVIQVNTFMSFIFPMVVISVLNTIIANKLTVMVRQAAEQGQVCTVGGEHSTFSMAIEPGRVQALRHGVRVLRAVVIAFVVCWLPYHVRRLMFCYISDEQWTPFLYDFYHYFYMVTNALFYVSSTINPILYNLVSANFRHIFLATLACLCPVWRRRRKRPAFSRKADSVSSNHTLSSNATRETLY
C-C chemokine receptor type 6, sequence (P51684 whole entry): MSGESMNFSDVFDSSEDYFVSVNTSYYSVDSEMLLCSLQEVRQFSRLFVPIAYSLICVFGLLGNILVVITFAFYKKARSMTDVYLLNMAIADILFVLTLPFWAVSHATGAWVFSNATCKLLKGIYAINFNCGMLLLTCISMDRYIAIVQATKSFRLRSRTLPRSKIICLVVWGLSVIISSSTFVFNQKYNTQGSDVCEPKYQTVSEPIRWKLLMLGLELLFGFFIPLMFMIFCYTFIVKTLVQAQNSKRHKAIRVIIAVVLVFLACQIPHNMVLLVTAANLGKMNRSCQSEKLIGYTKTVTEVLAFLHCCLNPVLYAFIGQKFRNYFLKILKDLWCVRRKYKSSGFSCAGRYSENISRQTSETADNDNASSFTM
Luciferin 4-monooxygenase, sequence (P08659 whole entry): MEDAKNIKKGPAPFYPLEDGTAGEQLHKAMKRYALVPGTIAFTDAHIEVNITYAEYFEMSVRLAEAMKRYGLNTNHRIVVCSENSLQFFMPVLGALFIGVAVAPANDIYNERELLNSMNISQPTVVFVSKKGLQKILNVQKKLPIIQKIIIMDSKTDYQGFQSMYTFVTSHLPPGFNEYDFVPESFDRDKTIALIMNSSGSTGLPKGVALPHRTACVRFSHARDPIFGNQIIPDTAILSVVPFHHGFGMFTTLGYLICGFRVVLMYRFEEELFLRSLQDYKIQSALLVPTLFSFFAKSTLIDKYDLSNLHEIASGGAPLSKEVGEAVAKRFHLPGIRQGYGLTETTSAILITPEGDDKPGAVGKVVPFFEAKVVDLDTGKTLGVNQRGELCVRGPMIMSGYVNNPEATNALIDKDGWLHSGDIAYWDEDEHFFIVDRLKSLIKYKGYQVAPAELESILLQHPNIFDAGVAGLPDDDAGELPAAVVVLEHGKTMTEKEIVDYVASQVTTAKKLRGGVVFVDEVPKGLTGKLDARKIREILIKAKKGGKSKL
Protein Rev, sequence (P04618 whole entry): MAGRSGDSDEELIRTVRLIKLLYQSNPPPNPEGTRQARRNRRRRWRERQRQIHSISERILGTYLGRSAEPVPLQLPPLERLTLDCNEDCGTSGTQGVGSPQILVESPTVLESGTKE
Cyclin-dependent kinase 5/CDK5 activator 1, sequence (Q00535 whole entry): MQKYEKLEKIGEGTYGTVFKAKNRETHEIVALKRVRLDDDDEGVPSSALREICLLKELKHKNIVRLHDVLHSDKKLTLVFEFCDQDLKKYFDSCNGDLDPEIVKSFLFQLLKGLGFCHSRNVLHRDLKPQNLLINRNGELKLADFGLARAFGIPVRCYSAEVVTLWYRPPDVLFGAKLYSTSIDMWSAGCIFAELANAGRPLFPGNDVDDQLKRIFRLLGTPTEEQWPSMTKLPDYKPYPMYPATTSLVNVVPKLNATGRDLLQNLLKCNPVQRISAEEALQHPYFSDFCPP
Cyclin-dependent kinase 5/CDK5 activator 1, sequence (Q15078 whole entry, further chain): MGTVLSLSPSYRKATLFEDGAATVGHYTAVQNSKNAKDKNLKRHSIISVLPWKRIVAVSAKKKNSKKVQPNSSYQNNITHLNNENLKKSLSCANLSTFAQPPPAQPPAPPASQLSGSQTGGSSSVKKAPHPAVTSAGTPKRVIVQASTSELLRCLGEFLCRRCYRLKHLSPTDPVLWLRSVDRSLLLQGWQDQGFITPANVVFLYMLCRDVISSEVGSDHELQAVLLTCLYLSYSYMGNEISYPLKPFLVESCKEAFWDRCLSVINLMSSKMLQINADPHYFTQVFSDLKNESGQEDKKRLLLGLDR

`Cc1c(O)ccc2cc(S(=O)(=O)c3ccccc3)c(=O)oc12`: the IC50 in assay [1] was > 66 µM (inactive); against Protein Rev, 14.2 µM (not active); in [3] it was 46.7 µM (inactive); in [4], 4.72 µM (active). Besides, the AC50 in [2] is 3.32 µM (active).

Take `Cc1cccc(N2C(=O)NC(=O)/C(=C\c3cccn3-c3ccc(Cl)cc3)C2=O)c1`: the AC50 in assay [5] is 8.91 µM (active). Also, in the assay on Vero, the CC50 was 23.4 µM (active). The EC50 in assay [6] was 9.06 µM (active).

On to `CCOc1ccc(OCC(=O)Nc2nccs2)cc1`, for which the AC50 in the assay on HEK293 is 2.74 µM (active); in assay [8] it was 21.2 µM (active); in assay [10] it was 31.3 µM (active). For the same compound, the EC50 in assay [7] is 2.37 µM (active); in [9], 6.85 µM (active); in assay [11], 8.12 µM (active); in assay [12], 9.78 µM (active); in assay [13], 5.61 µM (active). Also, in the assay “cells”, the IC50 is 20.2 µM (active).

With `CN(C)CC1CCC/C(=C\c2ccc(OC(=O)c3ccc(Cl)cc3)cc2)C1=O` (centres undefined), the values for the IC50 (on Beta-galactosidase; in assay [14]) were > 66.6 µM (inactive) and 47.6 µM (inactive), respectively.
